Earlier results in patent US20050272031A1, “Viral variants and uses therefor” (MELBOURNE HEALTH, priority 2000, published 2005).

System: HBV

SMILES: Nc1ncnc2c1ncn2CCOCP(=O)(O)O [Adefovir]
- anti-HBV activity in vitro: effective anti-HBV activity in vitro
